The conditions of series [1]: Petrides et al., 2009, 2018, cited from earlier work.
A short description of series [2]: Long-term plasma exposure after a single SC ANA dose (56-day follow-up), plasma LC-MS/MS. The note with it: for AUC(0-inf) / AUC(0-t) / half-life / Cmax / Tmax: Sprague-Dawley, rat, male SD rats, n = 5, 56-day follow-up; for Cmax: read-out: Cmax; for Tmax: read-out: Tmax. The series is classed as in vivo, Sprague-Dawley rats. Here is the method: To monitor the sustained release of SC ANA in the long term, 10 male SD rats were treated with a single dose of either 7.0 mg/kg (n = 5) or 35.0 mg/kg (n = 5). The rats were purchased from SPF Biotechnology Co. Ltd. (Beijing, China). Animals were acclimated to the test facility for at least three days, during which their general health was checked by veterinary staff or other authorized personnel. Animals were kept in polycarbonate cages containing absorbent corncob bedding, with a maintained temperature range of +20-25 °C and a 12-h light/dark cycle. Animals had access to food and drinking water ad libitum during acclimation and the experiment. At the end of the study, the rats were euthanized by exposure to an increasing concentration of CO2. […] The SC formulation was prepared by dissolving micronized ANA (5 μm particle size) in an oily triglyceride ester of saturated caprylic and capric fatty acids and glycerol (Miglyol® 810 N, IOI Oleo GmbH, Hamburg, Germany). […] To evaluate plasma concentration-time profiles, blood samples were collected from the jugular vein in EDTA tubes and stored at -70 °C until further analysis. […] In the second PK analysis in rats with a longer follow-up time, blood samples were collected at 0, 30 min, 1 […], and 56 d after dosage. SD rat plasma was analyzed for ANA, 3-OH-ANA, and RL603 concentrations by Pharmaron (Beijing, China). ANA, 3-hydroxy-anagrelide (CAS No. 733043-41-9, Cat. No. sc-206647, Santa Cruz Biotechnology, Inc., Dallas, TX), and RL603 (CAS No. 327602-34-6, Cat. No. sc-391661, Santa Cruz Biotechnology, Inc., Dallas, TX) were used as reference items in calibration standards and quality control (QC) samples. The HPLC and the MS/MS (LCMS-8060) instruments were both from SHIMADZU (Kyoto, Japan), and the column used was a Raptor Biphenyl column (2.7 μm, 50 × 2.1 mm, Restek, Bellefonte, PA). The desired serial concentrations of working solutions were achieved by diluting analyte stock solution with 50% acetonitrile in water. […] QC samples at 0.5, 1, 2, 50, and 800 ng/mL were prepared independently of those used for the calibration curves. These QC samples were prepared on the day of analysis in the same way as calibration standards. Carbamazepine (CAS No. 298-46-4, Sigma-Aldrich, St. Louis, MO) was used as an internal standard for all analytes. Altogether, 55 μL of standards, 55 μL of QC samples, and 55 μL of test samples (comprising 50 μL of plasma and 5 μL of blank solution) were added to 200 μL of acetonitrile containing an internal standard mixture to precipitate protein. The samples were then vortexed for 30 seconds. After centrifugation at 4000 × g (+4 °C) for 5 min, the supernatant was diluted threefold with water, and 2 μL of the diluted supernatant was injected into the LC/MS/MS system for quantitative analysis. The transitions were 256.00-198.90 m/z for anagrelide hydrochloride, 272.00-198.95 m/z for 3-hydroxy anagrelide, 216.00-198.95 m/z for RL603, and 237.20-194.10 m/z for carbamazepine. […] Plasma drug concentration-time profiles were drawn by the average plasma concentrations at specific time points using Microsoft Excel (Redmond, WA). […] Certara, Princeton, NJ) software. Averages of each variable were used when PK values were compared.

Where [3] appears, read: analyte in plasma after single SC ANA dose 7 mg/kg.
Where [4] appears, read: analyte in plasma after single SC ANA dose 35 mg/kg.

Structures are written as SMILES. Like-named read-outs stand apart in the source and are kept apart here.

By AUC(0-inf) is commonly meant total exposure, with the tail of the curve extrapolated. A higher AUC(0-inf) goes with more exposure. In general, AUC(0-t) refers to the area under the concentration-time curve up to a stated or last time point. Low values mean low exposure, high ones high exposure. A word on the half-life: it is how long it takes for the measured level to halve. Read a low half-life as fast loss. By Cmax is commonly meant the maximum level reached in the sampled fluid or tissue. As usually defined, the Tmax is the time from dosing to the highest level. As for `O=C1CN2Cc3c(ccc(Cl)c3Cl)N=C2N1` [Anagrelide, imidazo‐[2,1‐b] quinazolin‐2[3H]‐one, 6,7‐dichloro‐1,5‐dihydro, monohydro‐chloride], in series [1] (after PO drug administration, ref Gaver et al., 1981), the “time of peak plasma concentration” value was “approximately one hour”. Further, the bioavailability result in series [1] (taken orally, ref Spencer & Brogden, 1994) is “approximately 70%”. In series [2] (setting [3]), the AUC(0-inf) came to 1570 ± 388 ng·h/mL, the AUC(0-t) worked out at 1460 ± 148 ng·h/mL, the half-life is 293 h and the highest concentration (Cmax) came to 6.78 ± 1.86 ng/mL. The Tmax in series [2] (setting [3]) was 1 h. Also, in series [2] (setting [4]), the AUC(0-inf) came to 9480 ± 5270 ng·h/mL, the AUC(0-t) worked out at 6350 ± 666 ng·h/mL, the half-life was 336 h and the Cmax turned out to be 21.8 ± 8.62 ng/mL. Besides, the Tmax in series [2] (setting [4]) was 2.2 ± 1.64 h. In addition, in series [2] (single SC administration in rats (7 or 35 mg/kg)), the “time plasma concentrations were detected after a single administration” value is recorded as “up to 56 days”.

The values above are taken from publication PMC11816618, “Pharmacokinetic profile and in vivo anticancer efficacy of anagrelide administered subcutaneously in rodents” (Drug Delivery, 2025).
